Reference: ChEMBL document CHEMBL1909046, “DrugMatrix in vitro pharmacology data”

Experiments:
[1] = biological target: 5-hydroxytryptamine receptor 6 (Homo sapiens, UniProt P50406); type: cell membranes, HeLa, Membrane; details: hela; further: in other assays of this panel Not Active means under 50% inhibition at 10 µM
[2] = biological target: Sodium-dependent dopamine transporter (Homo sapiens, UniProt Q01959); assay: DRUGMATRIX: Dopamine Transporter radioligand binding (ligand: [125I] RTI-55); type: cell membranes, CHO-K1, Membrane; details: cho-k1; Not Active = under 50% inhibition at 10 µM
Chain of Sodium-dependent dopamine transporter (Q01959 whole entry): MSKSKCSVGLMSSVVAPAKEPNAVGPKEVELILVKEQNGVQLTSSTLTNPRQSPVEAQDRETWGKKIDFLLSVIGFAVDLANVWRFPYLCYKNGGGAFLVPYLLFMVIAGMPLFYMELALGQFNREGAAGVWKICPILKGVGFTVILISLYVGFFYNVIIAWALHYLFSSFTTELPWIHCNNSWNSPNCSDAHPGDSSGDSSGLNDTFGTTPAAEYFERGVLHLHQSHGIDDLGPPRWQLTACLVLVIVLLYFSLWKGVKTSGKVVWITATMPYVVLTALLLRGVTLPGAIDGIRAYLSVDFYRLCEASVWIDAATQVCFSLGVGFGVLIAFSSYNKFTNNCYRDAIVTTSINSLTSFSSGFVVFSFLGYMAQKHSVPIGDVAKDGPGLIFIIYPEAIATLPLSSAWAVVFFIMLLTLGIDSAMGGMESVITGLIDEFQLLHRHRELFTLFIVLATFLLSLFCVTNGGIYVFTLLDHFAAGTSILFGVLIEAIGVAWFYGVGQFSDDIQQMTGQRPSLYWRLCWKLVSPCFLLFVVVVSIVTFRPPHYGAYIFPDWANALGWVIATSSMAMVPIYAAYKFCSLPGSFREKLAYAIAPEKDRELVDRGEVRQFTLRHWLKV

Caspase-1 = biological target: T1, Caspase-1 (Homo sapiens, UniProt P29466); parameters: species or system Escherichia coli;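 further: Caspase-1 enzyme inhibition assay with a peptide substrate; in other assays of this panel Not Active means under 50% inhibition at 10 µM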
T1 sequence (P29466 whole entry): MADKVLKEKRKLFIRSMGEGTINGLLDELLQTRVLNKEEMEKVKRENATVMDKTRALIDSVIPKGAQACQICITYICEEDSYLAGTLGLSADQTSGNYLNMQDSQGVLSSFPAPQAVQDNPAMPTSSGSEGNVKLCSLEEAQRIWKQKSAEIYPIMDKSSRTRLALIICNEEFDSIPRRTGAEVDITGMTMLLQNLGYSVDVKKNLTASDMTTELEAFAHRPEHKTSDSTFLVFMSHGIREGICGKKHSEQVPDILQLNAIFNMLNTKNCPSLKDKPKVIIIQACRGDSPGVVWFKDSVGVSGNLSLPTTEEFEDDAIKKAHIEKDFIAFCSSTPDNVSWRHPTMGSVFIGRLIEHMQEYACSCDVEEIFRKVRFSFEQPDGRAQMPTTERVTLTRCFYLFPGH

[3] = DRUGMATRIX: Imidazoline I2, Central radioligand binding (ligand: [3H] Idazoxan); type: cell membranes, Rattus norvegicus, Wistar, Cerebral cortex, Membrane; details: Not Active = under 50% inhibition at 10 µM
[4] = DRUGMATRIX: Phosphodiesterase PDE3 enzyme inhibition (substrate: [3H]cAMP + cAMP); type: tissue-based, Homo sapiens; details: platelet; Not Active = under 50% inhibition at 10 µM
Neutrophil elastase = biological target: T2, Neutrophil elastase (Homo sapiens, UniProt P08246); type: tissue-based;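 further: inhibition of neutrophil elastase enzyme activity, measured with a p-nitroanilide-linked peptide substrate; in other assays of this panel Not Active means under 50% inhibition at 10 µM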
T2 sequence (P08246 whole entry): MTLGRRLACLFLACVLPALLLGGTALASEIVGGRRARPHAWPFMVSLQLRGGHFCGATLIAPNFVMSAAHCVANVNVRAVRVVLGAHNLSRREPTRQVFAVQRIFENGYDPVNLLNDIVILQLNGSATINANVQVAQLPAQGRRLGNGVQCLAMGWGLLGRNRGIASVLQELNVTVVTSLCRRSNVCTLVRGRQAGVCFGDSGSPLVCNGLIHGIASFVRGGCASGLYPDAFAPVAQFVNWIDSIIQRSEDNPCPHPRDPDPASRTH

Chain of 5-hydroxytryptamine receptor 6 (P50406 whole entry): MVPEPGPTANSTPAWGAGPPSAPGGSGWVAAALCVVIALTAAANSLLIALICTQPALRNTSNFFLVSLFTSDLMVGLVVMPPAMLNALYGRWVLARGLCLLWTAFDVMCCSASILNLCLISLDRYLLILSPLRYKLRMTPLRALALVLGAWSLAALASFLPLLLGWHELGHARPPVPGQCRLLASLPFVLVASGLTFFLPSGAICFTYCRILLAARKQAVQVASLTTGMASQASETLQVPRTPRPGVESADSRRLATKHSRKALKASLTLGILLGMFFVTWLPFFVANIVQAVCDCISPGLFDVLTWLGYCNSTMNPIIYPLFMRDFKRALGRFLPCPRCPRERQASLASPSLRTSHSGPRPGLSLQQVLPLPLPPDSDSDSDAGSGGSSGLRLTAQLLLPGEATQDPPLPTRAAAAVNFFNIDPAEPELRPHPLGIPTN

CCN(C(C)=O)c1cccc(-c2ccnc3c(C#N)cnn23)c1 [ZALEPLON]
Not Active: IC50 [1] | IC50 [2] | IC50 (Caspase-1) | IC50 [3] | Ki [3] | IC50 [4] | Ki [4] | IC50 (Neutrophil elastase)

COBALTOUS CHLORIDE
Not Active: IC50 [1] | Ki [1] | IC50 [2] | Ki [2] | IC50 (Caspase-1) | Ki (Caspase-1) | IC50 [3] | Ki [3] | IC50 [4] | Ki [4] | IC50 (Neutrophil elastase) | Ki (Neutrophil elastase)

COLISTIN
Not Active: IC50 [1] | Ki [1] | IC50 [2] | Ki [2] | IC50 (Caspase-1) | Ki (Caspase-1) | IC50 [3] | Ki [3] | IC50 [4] | Ki [4] | IC50 (Neutrophil elastase) | Ki (Neutrophil elastase)
